Data set [1] has as its system Plasmodium falciparum Dd2 (chloroquine, pyrimethamine, and mefloquine drug-resistant strain). The experiment in a line: In vitro anti-plasmodial image-based asexual assay, Dd2 strain. Type of data set: cell-based. The following applies: for IC50 / inhibition at 80 µM: Plasmodium falciparum, Dd2 strain; for IC50: 72 h; for Dd2 potency compared to the 3D7 results, in words: Dd2 versus 3D7; for inhibition at 80 µM: top dose of 80 µM, read-out: Pf Dd2 inhibition at the top dose. As for the experimental part: (§1) The semisynthesized/functionalized triazolopyrazine compounds and the scaffold triazolopyrazine precursors, compounds 1–18, were tested for their antimalarial activity against the 3D7 (chloroquine-sensitive strain) and Dd2 (chloroquine, pyrimethamine, and mefloquine resistant strain) P. falciparum. Where an accurate IC50 value could not be determined due to 100% growth inhibition and a plateau not being reached, but where ≥90% growth inhibition was attained at the top screening concentration, an estimated IC50 value was calculated.
(§2) Plsamodium falciparum 3D7 and Dd2 parasites were cultured in RPMI1640 (Life Technologies, Camarillo, CA, USA) supplemented with 2.5 mg/mL Albumax II, 5% AB human serum, 25 mM HEPES, and 0.37mM hypoxanthine. Ring stage parasites were treated with compounds following two rounds of sorbitol synchronization, as previously described. Artesunate and pyrimethamine were incorporated as controls. Following incubation of assay plates for 72 h at 37 °C, and 5% CO2 and 5% O2, parasites were stained with 2-(4-amidinophenyl)-1H-indole-6-carboxamidine (DAPI) and imaged using an Opera QEHS confocal imaging system (PerkinElmer, Waltham, MA, USA). Images were analyzed, as previously described, using Acapella spot detection software (PerkinElmer, Waltham, MA, USA).
(§3) Normalizing of raw data used the in-plate positive (5 μM puromycin 100% inhibition) and negative (0.4% DMSO–no inhibition) controls to obtain percent inhibition and then used to calculate IC50 values through a 4 parameter logistic curve fitting in GraphPad Prism v.6.

Data set [2] concerns Plasmodium falciparum 3D7 (chloroquine-sensitive strain). The data set is described as follows: In vitro anti-plasmodial image-based asexual assay, 3D7 strain. Type of data set: cell-based. The following applies: for IC50 / inhibition at 80 µM: 3D7 strain; for IC50: 72 h; for inhibition at 80 µM: top dose of 80 µM, read-out: Pf 3D7 inhibition at the top dose. As for the experimental part: as §1, §2, §3

A further data set relates to Pf 3D7. The following applies: cited from earlier work.
The test system of data set [3] is Plasmodium falciparum (Pf). Set-up: method as in earlier work. The following applies: OSM master compounds' list; read-out: Pf activity IC50, previously reported OSM data; cited from earlier work.
Where [4] appears, read: controls, read-out: Pf Dd2 IC50 ± SD (controls).
Setting [5] is: Plasmodium falciparum, 3D7, 72 h, controls, read-out: Pf 3D7 IC50 ± SD (controls).
The mark [6] stands for this setting: estimated IC50 as only ~90% inhibition reached at the top dose of 80 µM, read-out: Pf 3D7 IC50 ± SD (estimated, footnote d).
The mark [7] stands for this setting: Plasmodium falciparum, 3D7, 72 h, estimated IC50 as only ~90% inhibition reached at the top dose of 80 µM, read-out: Pf 3D7 IC50 ± SD (estimated, footnote d).
The mark [8] stands for this setting: in vitro, read-out: IC50 (Pf 3D7), Figure 1.
The mark [9] stands for this setting: Plasmodium falciparum, 3D7, 72 h, read-out: Pf 3D7 IC50 ± SD.

The values that follow come from PMC8122397, “Synthesis of New Triazolopyrazine Antimalarial Compounds” (Molecules, 2021).

As usually defined, the IC50 is the midpoint of a concentration-inhibition curve. The term melting point denotes the temperature, or range, at which the solid turns liquid. As a reminder, the inhibition is the change of the read-out against control, counted positive when it falls.

Like-named read-outs stand apart in the source and are kept apart here.

Regarding `C[C@H]1[C@H](OC(=O)CCC(=O)O)O[C@@H]2O[C@@]3(C)CC[C@H]4[C@H](C)CC[C@@H]1[C@@]24OO3` [Artesunate, reference compound], the IC50 in data set [1] (setting [4]) worked out at 0.002 ± 0.0001 µM; in data set [2] (setting [5]) it was 0.00348 ± 0.00014 µM.

`FC(F)Oc1ccc(-c2nnc3cncc(Cl)n23)cc1` [Compound 1]: the values for the IC50 in data set [1] (read-out: Pf Dd2 IC50 ± SD), in data set [2] (setting [6]) and in data set [2] (setting [7]) were 22.8 ± 13.7 µM, 16.8 ± 1.25 µM and 16.8 µM, respectively.

On to `FC(F)Oc1ccc(-c2nnc3cncc(OCCc4ccccc4)n23)cc1` [Compound 2, 3-[4-(Difluoromethoxy)phenyl]-5-(2-phenylethoxy)-[1,2,4]triazolo[4,3-α]pyrazine], for which the IC50 in the data set with Pf 3D7 (setting [8]) was 0.3 µM; in the data set with Pf 3D7 (read-out: IC50 against Pf 3D7, previously reported) it was 0.301 µM; in data set [1] (read-out: Pf Dd2 IC50 ± SD), 0.54 ± 0.02 µM; in data set [2] (read-out: Pf 3D7 IC50 ± SD), 0.31 ± 0.01 µM; in data set [2] (setting [9]), 0.3 µM.

Regarding `FC(F)Oc1ccc(-c2nnc3cncc(OCC(F)(F)F)n23)cc1` [Compound 3, 3-[(4-Difluoromethoxy)phenyl]-5-(2,2,2,-trifluroethoxy)-[1,2,4]triazolo[4,3-α]pyrazine], the melting point was 169 to 170 °C. Besides, in data set [1] (read-out: Pf Dd2 IC50 ± SD), the IC50 was determined as 21.2 ± 5.41 µM. In addition, the IC50 in data set [3] was 10 µM. Also, in data set [2] (read-out: Pf 3D7 IC50 ± SD), the IC50 worked out at 16.6 ± 1.02 µM. For the same compound, in data set [2] (setting [9]), the IC50 turned out to be 16.7 µM.

On to `Oc1nccn2c(-c3ccc(OC(F)F)cc3)nnc12` [Compound 4, 3-[4-(Difluoromethoxy)phenyl]-[1,2,4]triazolo[4,3-α]pyrazin-8-ol], for which the inhibition at 80 µM in data set [2] (Plasmodium falciparum) is < 41%.

Take `C[Si](C)(C)CCOc1cncc2nnc(-c3ccc(OC(F)F)cc3)n12` [Compound 5]: the melting point stood at 135 °C. For the same compound, in data set [1], the “Dd2 potency compared to the 3D7 results, in words” value is recorded as “large decreases in potency”. The IC50 in data set [2] (setting [9]) was 13.9 ± 0.87 µM.

For the compound `C[Si](C)(C)CCOc1nccn2c(-c3ccc(OC(F)F)cc3)nnc12` [Compound 6, 3-[4-(Difluoromethoxy)phenyl]-8-[2-(trimethylsilyl)ethoxy)-[1,2,4]triazolo[4,3-α]pyrazine], in data set [2] (Plasmodium falciparum), the inhibition at 80 µM was < 41%.

On to `Clc1ccc(-c2nnc3cncc(Cl)n23)cc1` [Compound 7], for which the IC50 in data set [1] (read-out: Pf Dd2 IC50 ± SD) turned out to be 14.3 ± 0.62 µM; in data set [2] (setting [9]), 12.6 µM.

As to `Cc1ncc(Cl)n2c(-c3ccc(Cl)cc3)nnc12` [Compound 8, 5-Chloro-3-(4-chlorophenyl)-8-methyl-[1,2,4]triazolo[4,3-α]pyrazine], the figures for the IC50 in data set [1] (read-out: Pf Dd2 IC50 ± SD) and in data set [2] (setting [7]) were 32.4 ± 1.44 µM and 19.2 ± 0.28 µM, respectively.

For `N#Cc1ccc(-c2nnc3cncc(Cl)n23)cc1` [Compound 9], the IC50 in data set [1] (read-out: Pf Dd2 IC50 ± SD) is 25.9 ± 0.74 µM; in data set [2] (setting [6]), 18.9 ± 0.66 µM; in data set [2] (setting [7]), 18.9 µM.

As to `Cc1ncc(Cl)n2c(-c3ccc(C#N)cc3)nnc12` [Compound 10, 4-(5-Chloro-8-methyl-1,2,4-triazolo[4,3-α]pyrazin-3-yl)benzonitrile], the IC50 was 38.2 ± 0.61 µM in data set [1] (read-out: Pf Dd2 IC50 ± SD) and 27.3 ± 0.82 µM in data set [2] (setting [7]).

`Cc1ncc(Cl)n2c(-c3ccc(OC(F)F)cc3)nnc12` [Compound 11, 5-Chloro-3-[(4-difluoromethoxy)phenyl]-8-methyl-[1,2,4]triazolo[4,3-α]pyrazine]: the “Dd2 potency compared to the 3D7 results, in words” value in data set [1] is recorded as “large decreases in potency”. Moreover, the concentration for half-maximal inhibition (IC50) in data set [1] (read-out: Pf Dd2 IC50 ± SD) was found to be 31.2 ± 0.82 µM; in data set [2] (read-out: Pf 3D7 IC50 ± SD), 12.5 ± 0.58 µM; in data set [2] (setting [9]), 12.5 µM.

`Cc1ncc(OCC(F)(F)F)n2c(-c3ccc(OC(F)F)cc3)nnc12` [Compound 12, 3-[4-(Difluoromethoxy)phenyl]-8-methyl-5-(2,2,2-trifluoroethoxy)-[1,2,4]triazolo[4,3-a]pyrazine]: in data set [1], the “Dd2 potency compared to the 3D7 results, in words” value is “large decreases in potency” and the inhibition at 80 µM was < 41%. In addition, the “growth inhibition at the top screening concentration” value in data set [2] (3D7, predicted IC50 value not calculated) was < 90%.

With `Cc1ncc(OCCc2ccccc2)n2c(-c3ccc(OC(F)F)cc3)nnc12` [Compound 13, 3-[4-(Difluoromethoxy)phenyl]-8-methyl-5-(2-phenylethoxy)-[1,2,4]triazolo[4,3-a]pyrazine], the “Dd2 potency compared to the 3D7 results, in words” value in data set [1] is “slight increase in potency”. In addition, the IC50 in data set [1] (read-out: Pf Dd2 IC50 ± SD) is 8.2 ± 0.6 µM; in data set [2] (setting [6]) it was 11 ± 0.56 µM; in data set [2] (setting [7]) it was 11.1 µM. Moreover, the “fold decrease in potency on methylation” value in data set [2] (3D7, compared with compound 2) is reported as 37 fold.

Turning to `FC(F)(F)c1ncc(Cl)n2c(-c3ccc(Cl)cc3)nnc12` [Compound 14, 5-Chloro-3-(4-chlorophenyl)-8-(trifluoromethyl)-[1,2,4]triazolo[4,3-α]pyrazine], the values for the IC50 in data set [1] (read-out: Pf Dd2 IC50 ± SD) and in data set [2] (setting [9]) were 6.18 ± 0.09 µM and 4.84 ± 0.13 µM, respectively.

Regarding `CC(F)(F)c1ncc(Cl)n2c(-c3ccc(Cl)cc3)nnc12` [Compound 15, 5-Chloro-3-(4-chlorophenyl)-8-(1,1-difluoroethyl)-[1,2,4]triazolo[4,3-a]pyrazine], the values for the IC50 in data set [1] (read-out: Pf Dd2 IC50 ± SD), in data set [2] (read-out: Pf 3D7 IC50 ± SD) and in data set [2] (setting [9]) were 2.58 ± 0.07 µM, 1.72 ± 0.02 µM and 1.7 µM, respectively. For the same compound, the “fold improvement in potency compared to the parent scaffold” value in data set [2] (3D7, compared with scaffold 7) was found to be 7.3 fold.

With `CC(F)(F)c1nccn2c(-c3ccc(Cl)cc3)nnc12` [Compound 16, 3-(4-Chlorophenyl)-8-(1,1-difluoroethyl)-[1,2,4]triazolo[4,3-a]pyrazine], the “Dd2 potency compared to the 3D7 results, in words” value in data set [1] is “large decreases in potency”. Besides, the IC50 in data set [1] (read-out: Pf Dd2 IC50 ± SD) was 24.7 ± 0.15 µM; in data set [2] (setting [9]), 6.4 ± 0.1 µM.

Regarding `FC1(F)CCC(c2ncc(Cl)n3c(-c4ccc(Cl)cc4)nnc23)CC1` [Compound 17, 5-Chloro-3-(4-chlorophenyl)-8-(4,4-difluorocyclohexyl)-[1,2,4]triazolo[4,3-a]pyrazine], in data set [1], the “Dd2 potency compared to the 3D7 results, in words” value is reported as “large decreases in potency” and the inhibition at 80 µM is < 41%. Besides, the “antimalarial activity in words” value in data set [2] (3D7) was “limited activity”. Moreover, the IC50 in data set [2] (setting [7]) was 20.2 ± 2.86 µM.

Compound `FC1(F)CCC(c2nccn3c(-c4ccc(Cl)cc4)nnc23)CC1` [Compound 18, 3-(4-Chlorophenyl)-8-(4,4-difluorocyclohexyl)-[1,2,4]triazolo[4,3-a]pyrazine] had a melting point of 203 to 205 °C. The “antimalarial activity in words” value in data set [2] (3D7) is given as “limited activity”. The inhibition at 80 µM in data set [2] (Plasmodium falciparum) was < 41%.

As to `OCC(COc1cncc2nnc(-c3ccc(OC(F)F)cc3)n12)c1ccccc1` (stereo not shown) [OSM-LO-13], in the data set on Pf 3D7 (setting [8]), the IC50 was 0.279 µM.

As for `Fc1ccc([C@@H](COc2cncc3nnc(-c4ccc(OC(F)F)cc4)n23)OC(F)F)cc1F` [OSM-S-377], the IC50 with Pf 3D7 (setting [8]) was 0.016 µM.

`OC(COc1cncc2nnc(-c3ccc(OC(F)F)cc3)n12)c1ccc(F)c(F)c1` (stereo not shown) [OSM-S-390]: in the data set on Pf 3D7 (setting [8]), the IC50 is 0.07 µM.

In the case of `COc1ccc(C[C@H](N)C(=O)N[C@H]2[C@@H](O)[C@H](n3cnc4c(N(C)C)ncnc43)O[C@@H]2CO)cc1` [Puromycin, reference compound], the IC50 in data set [1] (setting [4]) turned out to be 0.101 ± 0.0028 µM; in data set [2] (setting [5]) it was 0.0953 ± 0.00145 µM.

As to `CCc1nc(N)nc(N)c1-c1ccc(Cl)cc1` [Pyrimethamine, reference compound], the inhibition at 80 µM in data set [1] is < 41%. In addition, the IC50 in data set [2] (setting [5]) amounted to 0.01208 ± 4e-05 µM.
